Laboratory results taken from patent US10028992B2, “Methods of treating muscular dystrophy” (BOARD OF REGENTS OF THE NEVADA SYSTEM OF HIGHER EDUCATION …, priority 2012, dated 2018).

Test system: α7 integrin promoter
Test: muscle cell-based assay: α7βgal+/− myoblasts/myotubes, LacZ reporter, β-galactosidase cleavage of FDG
Set-up: species or system mouse; Results in α7+/− β-galactosidase assay: scale not given here
Conditions: for Results in a α7+/− β-galactosidase assay, Myotubes, 0.5 uM: compound at 0.5 uM; for Results in a α7+/− β-galactosidase assay, Myotubes, 1 uM: compound at 1 uM; for Results in a α7+/− β-galactosidase assay, Myotubes, 5 uM: compound at 5 uM; for Results in a α7+/− β-galactosidase assay, Myotubes, 10 uM: compound at 10 uM; for Results in a α7+/− β-galactosidase assay, Myotubes, 20 uM: compound at 20 uM; for Results in a α7+/− β-galactosidase assay, Myotubes, 40 uM: compound at 40 uM; for Result in α7+/− β-galactosidase assay / Results in α7+/− β-galactosidase assay: Myoblasts
Procedure: An α7 integrin null mouse was produced in which exon 1 of the gene encoding the α7 integrin was replaced by the LacZ reporter. In these mice, all the transcriptional regulatory elements of the α7 integrin promoter were retained, allowing β-galactosidase to report expression of 7 integrin. A primary myoblast cell line (designated α7βgal^+/−) isolated from 10 day old α7^+/− pups were analyzed for the ability of β-galactosidase to report α7 integrin expression. α7βgal^+/− myoblasts were differentiated and subjected to X-gal staining and western analysis (FIGS. 1A and 1B).
The activity of the α7 integrin promoter was measured by β-galactosidase cleavage of the non-fluorescent compound fluorescein di-β-D-galactopyranoside (FDG) to fluorescein. This assay was used to screen compound libraries to identify molecules that up-regulate α7 integrin expression in muscle.
Also evaluated was the effect of various isoforms of laminin and the ligand for α7β1 integrin on integrin expression. Positive hits were subjected to dose-response analysis, western analysis and a myostatin counterscreen (a negative regulator of muscle growth).

SMILES: CC(C)Oc1cccc(C(=O)Nc2ccc(CN3CCOCC3)cc2)c1 [drawing 355]
- Results in a α7+/− β-galactosidase assay, Myotubes, 0.5 uM: −0.02164
- Results in a α7+/− β-galactosidase assay, Myotubes, 1 uM: −0.1398
- Results in a α7+/− β-galactosidase assay, Myotubes, 5 uM: 0.1741
- Results in a α7+/− β-galactosidase assay, Myotubes, 10 uM: 0.1947
- Results in a α7+/− β-galactosidase assay, Myotubes, 20 uM: −0.2357
- Results in a α7+/− β-galactosidase assay, Myotubes, 40 uM: −0.1159

SMILES: COc1c(Cl)cc(/C=C2\C(=O)Nc3ccccc32)cc1Cl [drawing 713]
- Result in α7+/− β-galactosidase assay (0.5 uM): 0.3543
- Result in α7+/− β-galactosidase assay (1 uM): 0.1322
- Result in α7+/− β-galactosidase assay (5 uM): −0.0815
- Result in α7+/− β-galactosidase assay (10 uM): −0.2165
- Result in α7+/− β-galactosidase assay (20 uM): −0.302
- Result in α7+/− β-galactosidase assay (40 uM): −0.4698

SMILES: O=C1Nc2ccccc2/C1=C1\Nc2ccccc2C1=O [drawing 716]
- Result in α7+/− β-galactosidase assay (0.5 uM): 0.06101
- Result in α7+/− β-galactosidase assay (1 uM): 0.0859
- Result in α7+/− β-galactosidase assay (5 uM): −0.394
- Result in α7+/− β-galactosidase assay (10 uM): −0.2837
- Result in α7+/− β-galactosidase assay (20 uM): −0.157
- Result in α7+/− β-galactosidase assay (40 uM): −0.1933

SMILES: COC(=O)c1cc(S(=O)(=O)NCC2CCN(Cc3ccc(Cl)cc3)CC2)cn1C [drawing 672]
- Results in α7+/− β-galactosidase assay (0.5 uM): 0.2815
- Results in α7+/− β-galactosidase assay (1 uM): 0.1861
- Results in α7+/− β-galactosidase assay (5 uM): −0.03678
- Results in α7+/− β-galactosidase assay (10 uM): −0.03865
- Results in α7+/− β-galactosidase assay (20 uM): 0.1247
- Results in α7+/− β-galactosidase assay (40 uM): 0.0618

SMILES: CCOc1ccc2nc(Cl)sc2c1 [drawing 370]
- Results in a α7+/− β-galactosidase assay, Myotubes, 0.5 uM: −0.00103
- Results in a α7+/− β-galactosidase assay, Myotubes, 1 uM: 0.001963
- Results in a α7+/− β-galactosidase assay, Myotubes, 5 uM: −0.02718
- Results in a α7+/− β-galactosidase assay, Myotubes, 10 uM: −0.04332
- Results in a α7+/− β-galactosidase assay, Myotubes, 20 uM: −0.1345
- Results in a α7+/− β-galactosidase assay, Myotubes, 40 uM: −0.219

SMILES: COc1ccccc1C(=O)Nc1ccnn1C1CCN(C(=O)c2ccoc2)CC1 [drawing 551]
- Results in α7+/− β-galactosidase assay (0.5 uM): −0.09644
- Results in α7+/− β-galactosidase assay (1 uM): −0.04841
- Results in α7+/− β-galactosidase assay (5 uM): 0.05814
- Results in α7+/− β-galactosidase assay (10 uM): 0.02292
- Results in α7+/− β-galactosidase assay (20 uM): 0.01412
- Results in α7+/− β-galactosidase assay (40 uM): −0.05323

SMILES: CC(C(=O)Nc1ccc(C#N)cc1)N(C)CC(=O)Nc1cccc(F)c1 (centres unmarked) [drawing 422]
- Results in a α7+/− β-galactosidase assay, Myotubes, 0.5 uM: −0.07067
- Results in a α7+/− β-galactosidase assay, Myotubes, 1 uM: −0.1638
- Results in a α7+/− β-galactosidase assay, Myotubes, 5 uM: 0.1526
- Results in a α7+/− β-galactosidase assay, Myotubes, 10 uM: 0.4825
- Results in a α7+/− β-galactosidase assay, Myotubes, 20 uM: −0.1663
- Results in a α7+/− β-galactosidase assay, Myotubes, 40 uM: 0.2317

SMILES: CC(C)Oc1cccc(C(=O)Nc2ccc(CN3CCOCC3)cc2)c1 [drawing 563]
- Results in α7+/− β-galactosidase assay (0.5 uM): −0.0458
- Results in α7+/− β-galactosidase assay (1 uM): −0.04183
- Results in α7+/− β-galactosidase assay (5 uM): 0.01603
- Results in α7+/− β-galactosidase assay (10 uM): 0.2092
- Results in α7+/− β-galactosidase assay (20 uM): 0.7886
- Results in α7+/− β-galactosidase assay (40 uM): −0.0962

SMILES: COCCSc1ccccc1C(=O)Nc1cc(C)cc(C)c1 [drawing 387]
- Results in a α7+/− β-galactosidase assay, Myotubes, 0.5 uM: −0.1267
- Results in a α7+/− β-galactosidase assay, Myotubes, 1 uM: 0.09331
- Results in a α7+/− β-galactosidase assay, Myotubes, 5 uM: −0.1086
- Results in a α7+/− β-galactosidase assay, Myotubes, 10 uM: 0.1203
- Results in a α7+/− β-galactosidase assay, Myotubes, 20 uM: −0.2283
- Results in a α7+/− β-galactosidase assay, Myotubes, 40 uM: −0.2601

SMILES: O=CN1CCN(C(=O)CC(c2ccccc2)c2cc(Br)ccc2O)CC1 (centres unmarked) [drawing 695]
- Results in α7+/− β-galactosidase assay (0.5 uM): 0.1751
- Results in α7+/− β-galactosidase assay (1 uM): 0.03283
- Results in α7+/− β-galactosidase assay (5 uM): 0.07723
- Results in α7+/− β-galactosidase assay (10 uM): −0.1323
- Results in α7+/− β-galactosidase assay (20 uM): 0.00725
- Results in α7+/− β-galactosidase assay (40 uM): −0.04551

SMILES: CN(C#N)c1nccc(-c2cccs2)n1 [Compound 190]
- EC50 (Mus musculus, given as log AC50 (negative values), read-out: Fit LogAC50 (converted)): 11.2 µM
- Score (Table 12 compound data): 42
- Fit Curve Class (curve class number, key not given): 2.1
- Fit HillSlope (curve fit): 2.0937
- Fit Zero Activity [%] (curve fit, activity at zero concentration): −28.9068%

SMILES: Cc1cccc(NC(=O)CN(C)C(=O)c2ccc(-c3ccc(Cl)cc3)o2)c1 [drawing 435]
- Results in a α7+/− β-galactosidase assay, Myotubes, 0.5 uM: −0.06415
- Results in a α7+/− β-galactosidase assay, Myotubes, 1 uM: −0.0743
- Results in a α7+/− β-galactosidase assay, Myotubes, 5 uM: −0.09532
- Results in a α7+/− β-galactosidase assay, Myotubes, 10 uM: −0.1682
- Results in a α7+/− β-galactosidase assay, Myotubes, 20 uM: −0.3693
- Results in a α7+/− β-galactosidase assay, Myotubes, 40 uM: −0.5402

SMILES: CSc1ccc(S(=O)(=O)NCc2ccccc2)cc1 [drawing 382]
- Results in a α7+/− β-galactosidase assay, Myotubes, 0.5 uM: −0.1565
- Results in a α7+/− β-galactosidase assay, Myotubes, 1 uM: −0.2515
- Results in a α7+/− β-galactosidase assay, Myotubes, 5 uM: 0.02007
- Results in a α7+/− β-galactosidase assay, Myotubes, 10 uM: 0.1738
- Results in a α7+/− β-galactosidase assay, Myotubes, 20 uM: −0.1735
- Results in a α7+/− β-galactosidase assay, Myotubes, 40 uM: −0.07044
